pIC50: −log10 of the molar value. Activity calls are given as the source filed them. The calls are words filed in the database; no cut-off is given here.
How the values were obtained:
[1] = target: T1, Lysine-specific demethylase 4A (Homo sapiens, UniProt O75164); assay: Inhibition of KDM4A (unknown origin)
T1 sequence (O75164 whole entry): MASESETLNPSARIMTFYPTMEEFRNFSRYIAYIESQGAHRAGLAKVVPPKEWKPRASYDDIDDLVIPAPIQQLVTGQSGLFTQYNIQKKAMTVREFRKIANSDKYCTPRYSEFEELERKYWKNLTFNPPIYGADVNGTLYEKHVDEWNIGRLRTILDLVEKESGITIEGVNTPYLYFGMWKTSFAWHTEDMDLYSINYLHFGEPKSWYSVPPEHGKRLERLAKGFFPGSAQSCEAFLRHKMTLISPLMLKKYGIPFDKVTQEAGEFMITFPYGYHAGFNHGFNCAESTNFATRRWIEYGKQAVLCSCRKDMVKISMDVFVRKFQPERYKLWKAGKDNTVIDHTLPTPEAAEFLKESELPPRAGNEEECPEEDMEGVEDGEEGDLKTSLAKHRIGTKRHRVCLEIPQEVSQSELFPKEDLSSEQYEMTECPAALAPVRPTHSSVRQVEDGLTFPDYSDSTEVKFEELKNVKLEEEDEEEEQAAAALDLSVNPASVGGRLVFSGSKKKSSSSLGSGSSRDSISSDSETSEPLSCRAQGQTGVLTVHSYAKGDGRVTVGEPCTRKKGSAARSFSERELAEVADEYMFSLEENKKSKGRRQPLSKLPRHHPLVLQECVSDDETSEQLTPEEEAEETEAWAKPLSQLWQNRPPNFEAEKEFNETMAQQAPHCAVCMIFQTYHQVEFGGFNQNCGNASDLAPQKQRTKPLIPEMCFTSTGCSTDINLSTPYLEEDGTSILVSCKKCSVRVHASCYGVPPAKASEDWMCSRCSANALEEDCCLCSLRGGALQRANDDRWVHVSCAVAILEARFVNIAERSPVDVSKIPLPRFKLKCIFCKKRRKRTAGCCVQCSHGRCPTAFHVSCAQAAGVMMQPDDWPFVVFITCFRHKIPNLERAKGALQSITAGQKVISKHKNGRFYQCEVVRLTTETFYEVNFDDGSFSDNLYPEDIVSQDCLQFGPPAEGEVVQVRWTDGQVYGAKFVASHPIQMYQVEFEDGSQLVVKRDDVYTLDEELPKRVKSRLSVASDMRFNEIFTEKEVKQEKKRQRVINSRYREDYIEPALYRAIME

[2] = Protein binding in mouse plasma; assay type: ADME, cell-free; settings: read-out: PPB (converted)
[3] = Clearance in CD-1 mouse at 5 mg/kg, iv; assay type: ADME, organism-based; settings: in vivo
[4] = Inhibition of CYP450 (unknown origin); assay type: ADME; settings: human
[5] = target: Lysine-specific demethylase 5B (Homo sapiens, UniProt Q9UGL1); assay: Inhibition of KDM5B (unknown origin) preincubated with enzyme
[6] = target: Lysine-specific histone demethylase 1A (Homo sapiens, UniProt O60341); assay: Inhibition of KDM1A (unknown origin)
Mus musculus [7] = assay: In vivo inhibition of KDM5 in nude mouse xenografted with human MCF7 cells assessed as increase in H3K4me3 level in tumor at 75 mg/kg, po qd for 5 days measured at 1 hrs post last dose by Western blot analysis relative to control; assay type: functional
Mus musculus [8] = assay: In vivo inhibition of KDM5 in nude mouse xenografted with human MCF7 cells assessed as increase in H3K4me3 level in tumor at 75 mg/kg, po qd for 5 days measured up to 24 hrs post last dose by Western blot analysis; assay type: functional, organism-based
[9] = target: Lysine-specific demethylase 6B (Homo sapiens, UniProt O15054); assay: Inhibition of KDM6B (unknown origin)
[10] = target: T2, Lysine-specific demethylase 4E (Homo sapiens, UniProt B2RXH2); assay: Inhibition of KDM4E (unknown origin)
T2 sequence (B2RXH2 whole entry): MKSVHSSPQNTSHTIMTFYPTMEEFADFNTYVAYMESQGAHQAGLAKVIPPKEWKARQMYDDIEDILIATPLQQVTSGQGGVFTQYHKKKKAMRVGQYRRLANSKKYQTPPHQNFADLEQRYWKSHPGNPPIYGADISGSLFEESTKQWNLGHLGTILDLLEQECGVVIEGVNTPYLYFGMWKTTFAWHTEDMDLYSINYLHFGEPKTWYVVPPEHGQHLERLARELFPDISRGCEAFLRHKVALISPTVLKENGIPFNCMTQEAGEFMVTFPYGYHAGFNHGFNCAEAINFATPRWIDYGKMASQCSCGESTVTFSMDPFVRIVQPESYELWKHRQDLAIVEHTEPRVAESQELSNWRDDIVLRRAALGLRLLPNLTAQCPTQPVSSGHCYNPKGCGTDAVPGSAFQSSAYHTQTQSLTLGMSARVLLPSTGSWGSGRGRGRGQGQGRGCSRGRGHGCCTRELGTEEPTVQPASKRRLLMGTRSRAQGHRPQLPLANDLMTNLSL

[11] = target: ATP-dependent translocase ABCB1 (Homo sapiens, UniProt P08183); assay: Inhibition of MDR1 (unknown origin); assay type: ADME
[12] = Volume of distribution in CD-1 mouse at 5 mg/kg, iv; assay type: ADME, organism-based; settings: in vivo
[13] = target: T3, Lysine-specific demethylase 4D (Homo sapiens, UniProt Q6B0I6); assay: Inhibition of KDM4D (unknown origin)
T3 sequence (Q6B0I6 whole entry): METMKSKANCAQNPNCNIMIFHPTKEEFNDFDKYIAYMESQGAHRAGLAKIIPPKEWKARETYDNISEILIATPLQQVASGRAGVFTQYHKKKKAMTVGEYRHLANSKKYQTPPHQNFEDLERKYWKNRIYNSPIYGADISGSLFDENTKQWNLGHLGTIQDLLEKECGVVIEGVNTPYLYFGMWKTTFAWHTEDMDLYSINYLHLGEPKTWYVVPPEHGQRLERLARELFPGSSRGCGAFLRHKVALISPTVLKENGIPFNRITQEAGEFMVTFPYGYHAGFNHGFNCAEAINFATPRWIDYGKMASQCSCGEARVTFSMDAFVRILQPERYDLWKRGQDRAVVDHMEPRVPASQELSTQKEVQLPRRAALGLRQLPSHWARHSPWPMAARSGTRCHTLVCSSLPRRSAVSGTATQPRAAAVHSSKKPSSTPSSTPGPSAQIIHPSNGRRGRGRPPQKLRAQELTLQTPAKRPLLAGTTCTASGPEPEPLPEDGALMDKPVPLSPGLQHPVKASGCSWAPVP

Chain of ATP-dependent translocase ABCB1 (P08183 whole entry): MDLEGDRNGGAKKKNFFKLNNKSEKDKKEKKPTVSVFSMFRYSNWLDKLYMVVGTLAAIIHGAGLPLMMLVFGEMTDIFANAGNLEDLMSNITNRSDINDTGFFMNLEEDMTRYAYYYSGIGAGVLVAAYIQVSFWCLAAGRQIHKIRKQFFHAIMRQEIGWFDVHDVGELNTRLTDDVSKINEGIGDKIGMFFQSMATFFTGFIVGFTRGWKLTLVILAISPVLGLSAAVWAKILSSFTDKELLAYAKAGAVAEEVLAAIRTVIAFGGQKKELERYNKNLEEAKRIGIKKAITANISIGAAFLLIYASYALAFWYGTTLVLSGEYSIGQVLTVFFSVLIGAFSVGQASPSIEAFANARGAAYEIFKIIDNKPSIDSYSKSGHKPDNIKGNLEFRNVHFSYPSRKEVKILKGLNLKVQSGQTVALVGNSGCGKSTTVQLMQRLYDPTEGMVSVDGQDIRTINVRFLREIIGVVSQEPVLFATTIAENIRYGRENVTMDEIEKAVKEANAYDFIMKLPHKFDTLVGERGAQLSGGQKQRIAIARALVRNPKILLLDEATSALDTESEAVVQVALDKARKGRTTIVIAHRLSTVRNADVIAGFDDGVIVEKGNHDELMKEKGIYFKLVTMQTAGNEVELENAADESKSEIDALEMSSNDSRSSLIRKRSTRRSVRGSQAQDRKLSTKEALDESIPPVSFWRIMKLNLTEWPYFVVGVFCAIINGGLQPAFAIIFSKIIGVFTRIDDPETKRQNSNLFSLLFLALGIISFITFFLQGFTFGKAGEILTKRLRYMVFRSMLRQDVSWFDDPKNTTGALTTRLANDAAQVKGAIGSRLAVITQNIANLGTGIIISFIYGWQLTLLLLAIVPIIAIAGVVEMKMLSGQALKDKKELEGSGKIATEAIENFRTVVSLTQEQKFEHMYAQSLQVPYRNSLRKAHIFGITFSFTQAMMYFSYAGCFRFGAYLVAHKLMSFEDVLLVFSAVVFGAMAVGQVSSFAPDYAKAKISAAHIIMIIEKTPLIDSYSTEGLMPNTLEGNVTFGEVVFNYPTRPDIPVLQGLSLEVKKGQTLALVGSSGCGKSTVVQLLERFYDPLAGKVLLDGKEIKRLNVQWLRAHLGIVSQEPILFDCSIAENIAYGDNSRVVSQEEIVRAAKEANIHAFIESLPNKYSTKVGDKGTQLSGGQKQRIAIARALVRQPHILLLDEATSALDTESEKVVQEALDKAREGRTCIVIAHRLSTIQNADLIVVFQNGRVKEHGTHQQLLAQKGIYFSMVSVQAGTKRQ
Chain of Lysine-specific demethylase 6B (O15054 whole entry): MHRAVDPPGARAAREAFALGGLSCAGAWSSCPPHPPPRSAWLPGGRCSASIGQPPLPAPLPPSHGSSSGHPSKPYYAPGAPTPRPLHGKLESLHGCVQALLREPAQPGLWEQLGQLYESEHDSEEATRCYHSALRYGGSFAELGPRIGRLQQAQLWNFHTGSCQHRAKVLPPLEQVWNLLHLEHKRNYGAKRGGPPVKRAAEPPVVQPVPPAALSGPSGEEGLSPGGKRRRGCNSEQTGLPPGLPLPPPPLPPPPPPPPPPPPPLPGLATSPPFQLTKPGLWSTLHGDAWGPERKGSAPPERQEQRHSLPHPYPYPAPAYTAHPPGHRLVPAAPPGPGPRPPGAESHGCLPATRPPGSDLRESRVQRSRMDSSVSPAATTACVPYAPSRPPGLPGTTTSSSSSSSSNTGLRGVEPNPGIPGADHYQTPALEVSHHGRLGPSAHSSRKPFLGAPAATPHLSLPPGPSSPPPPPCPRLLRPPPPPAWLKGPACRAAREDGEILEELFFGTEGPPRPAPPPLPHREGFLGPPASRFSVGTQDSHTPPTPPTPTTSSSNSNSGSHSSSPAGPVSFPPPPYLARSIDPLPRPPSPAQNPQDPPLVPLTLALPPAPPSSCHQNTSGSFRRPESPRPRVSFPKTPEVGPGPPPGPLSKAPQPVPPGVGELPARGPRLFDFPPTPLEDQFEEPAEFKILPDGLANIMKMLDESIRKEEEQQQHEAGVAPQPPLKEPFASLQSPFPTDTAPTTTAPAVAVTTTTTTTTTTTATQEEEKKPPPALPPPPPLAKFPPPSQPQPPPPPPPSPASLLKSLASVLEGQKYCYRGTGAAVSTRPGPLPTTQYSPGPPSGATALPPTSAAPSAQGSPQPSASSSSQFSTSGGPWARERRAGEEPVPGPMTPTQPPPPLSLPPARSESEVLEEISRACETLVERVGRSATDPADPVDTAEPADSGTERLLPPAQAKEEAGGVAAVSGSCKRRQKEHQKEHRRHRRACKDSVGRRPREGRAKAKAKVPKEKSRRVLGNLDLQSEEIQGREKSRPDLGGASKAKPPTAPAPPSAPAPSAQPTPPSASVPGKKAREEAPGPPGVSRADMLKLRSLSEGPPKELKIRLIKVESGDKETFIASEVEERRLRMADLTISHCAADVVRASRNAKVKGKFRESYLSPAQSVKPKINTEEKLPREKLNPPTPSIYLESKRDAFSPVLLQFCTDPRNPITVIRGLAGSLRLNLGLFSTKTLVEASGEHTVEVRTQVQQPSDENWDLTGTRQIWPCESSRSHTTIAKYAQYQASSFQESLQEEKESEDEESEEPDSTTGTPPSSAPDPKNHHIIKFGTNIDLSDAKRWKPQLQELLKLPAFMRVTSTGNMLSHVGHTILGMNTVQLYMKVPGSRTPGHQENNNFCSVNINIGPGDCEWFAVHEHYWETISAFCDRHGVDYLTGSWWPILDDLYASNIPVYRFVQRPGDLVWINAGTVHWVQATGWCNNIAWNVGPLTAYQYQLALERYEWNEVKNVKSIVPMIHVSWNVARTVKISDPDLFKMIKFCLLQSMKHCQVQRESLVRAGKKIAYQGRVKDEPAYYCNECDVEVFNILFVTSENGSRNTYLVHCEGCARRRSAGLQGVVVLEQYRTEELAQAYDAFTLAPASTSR
Chain of Lysine-specific demethylase 5B (Q9UGL1 whole entry): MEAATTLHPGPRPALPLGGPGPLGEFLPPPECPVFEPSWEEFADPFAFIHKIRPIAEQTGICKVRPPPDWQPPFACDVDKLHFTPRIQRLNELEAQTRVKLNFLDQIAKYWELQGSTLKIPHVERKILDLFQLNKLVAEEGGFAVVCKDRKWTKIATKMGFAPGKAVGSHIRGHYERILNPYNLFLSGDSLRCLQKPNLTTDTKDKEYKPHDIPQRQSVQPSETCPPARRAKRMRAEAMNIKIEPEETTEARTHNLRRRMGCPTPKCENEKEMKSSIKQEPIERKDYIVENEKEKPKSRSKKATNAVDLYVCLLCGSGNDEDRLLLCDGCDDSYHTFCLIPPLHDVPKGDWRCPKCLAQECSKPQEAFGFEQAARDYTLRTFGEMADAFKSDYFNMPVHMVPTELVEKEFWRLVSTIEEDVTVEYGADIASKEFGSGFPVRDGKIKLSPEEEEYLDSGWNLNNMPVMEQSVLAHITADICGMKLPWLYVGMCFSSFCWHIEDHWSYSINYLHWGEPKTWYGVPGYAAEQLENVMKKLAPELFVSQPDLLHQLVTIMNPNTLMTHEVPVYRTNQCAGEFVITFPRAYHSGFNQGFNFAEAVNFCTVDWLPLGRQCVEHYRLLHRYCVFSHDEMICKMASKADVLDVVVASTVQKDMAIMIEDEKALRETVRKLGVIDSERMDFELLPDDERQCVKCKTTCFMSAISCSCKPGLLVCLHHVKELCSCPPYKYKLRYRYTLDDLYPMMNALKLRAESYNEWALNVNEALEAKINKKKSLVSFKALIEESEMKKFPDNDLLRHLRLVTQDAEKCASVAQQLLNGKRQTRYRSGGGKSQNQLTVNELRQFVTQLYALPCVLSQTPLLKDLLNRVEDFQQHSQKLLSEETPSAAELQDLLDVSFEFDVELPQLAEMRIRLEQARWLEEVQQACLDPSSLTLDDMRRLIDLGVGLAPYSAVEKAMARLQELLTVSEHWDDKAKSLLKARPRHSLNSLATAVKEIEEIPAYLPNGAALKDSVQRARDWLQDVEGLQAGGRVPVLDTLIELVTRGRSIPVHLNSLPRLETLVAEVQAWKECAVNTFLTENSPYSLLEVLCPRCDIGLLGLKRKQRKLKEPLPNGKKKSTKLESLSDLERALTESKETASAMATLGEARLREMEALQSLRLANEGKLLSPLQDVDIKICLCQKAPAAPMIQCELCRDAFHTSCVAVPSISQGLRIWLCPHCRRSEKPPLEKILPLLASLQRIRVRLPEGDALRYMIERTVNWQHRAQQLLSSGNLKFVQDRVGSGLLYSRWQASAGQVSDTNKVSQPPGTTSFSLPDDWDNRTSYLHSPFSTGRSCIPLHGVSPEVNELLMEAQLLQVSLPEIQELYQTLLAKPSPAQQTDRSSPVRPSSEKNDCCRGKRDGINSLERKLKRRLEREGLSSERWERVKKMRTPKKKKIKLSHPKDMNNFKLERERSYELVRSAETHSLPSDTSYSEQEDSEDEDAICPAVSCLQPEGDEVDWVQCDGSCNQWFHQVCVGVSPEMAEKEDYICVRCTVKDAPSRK

In the case of Cc1cc(Cl)ccc1COc1ccnn1-c1cc(C(=O)O)ccn1, the pIC50 [1] was 7.00, the fraction unbound [2] was 0.009 and the clearance [3] was 2.1 mL/min/kg. For the same compound, the “inhibition (INH)” value [4] was “Not Active”, the pIC50 [5] was 8.70 and the pIC50 [6] was less than 4.40. The “fold change (FC)” value (Mus musculus [7]) was greater than 4, the inhibition (Mus musculus [8]) was “Active” and the pIC50 [9] was 5.64. The pIC50 [10] was 6.80, the “inhibition (INH)” value [11] was “Not Active” and the Vd [12] was 0.16 L/kg. It also gave a pIC50 [13] of 6.96.

Reference: ChEMBL document CHEMBL4219204, “Structure-based design and discovery of potent and selective KDM5 inhibitors” (Bioorg Med Chem Lett, 2018)
